According to paper PMC12371494, “Discovery of YTHDF2 Ligands by Fragment-Based Design” (ACS Bio & Med Chem Au, 2025):
Values joined by “and” are separate entries in the source; they are usually repeats but may differ in a detail not shown here. Identical values can stand only once.

How the values were obtained:
[1] = molecular target: T1, GST-YTHDF1 (Homo sapiens, UniProt Q9BYJ9); test: HTRF-based binding assay, DF1; details: for Single-dose residual signal at 100 µM, DF1: 100 µM compound, normalized; for IC50: dose-response
T1 construct: made in house
T1 sequence (Q9BYJ9 1-559): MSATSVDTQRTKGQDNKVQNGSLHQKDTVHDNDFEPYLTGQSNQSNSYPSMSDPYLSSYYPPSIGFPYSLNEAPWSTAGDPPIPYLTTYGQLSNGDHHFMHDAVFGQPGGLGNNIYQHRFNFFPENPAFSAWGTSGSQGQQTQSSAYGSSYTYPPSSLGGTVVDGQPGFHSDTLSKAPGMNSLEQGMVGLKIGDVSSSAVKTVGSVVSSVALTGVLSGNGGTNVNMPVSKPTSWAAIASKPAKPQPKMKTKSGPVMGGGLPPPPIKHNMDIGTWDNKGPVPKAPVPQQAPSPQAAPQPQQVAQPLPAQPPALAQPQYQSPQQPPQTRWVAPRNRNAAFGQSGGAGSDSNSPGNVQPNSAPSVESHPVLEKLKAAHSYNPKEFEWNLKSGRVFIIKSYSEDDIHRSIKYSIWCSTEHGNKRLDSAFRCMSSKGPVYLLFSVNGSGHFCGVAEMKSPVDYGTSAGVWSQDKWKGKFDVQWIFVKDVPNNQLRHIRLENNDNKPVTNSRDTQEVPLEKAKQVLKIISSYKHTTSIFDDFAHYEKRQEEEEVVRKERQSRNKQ
Method: The HTRF-based assay was employed to evaluate the selectivity of the series against other DF proteins.
A dose–response experiment on DF1 and DF3 was conducted for compounds 17, 18, 23, and 27 (Figure S5). Compounds 17, 18, and 27 are active on three DF proteins. […] In contrast, compound 23 is selective for DF2, with residual signals (at the highest employed concentration of 62.5 μM) of 51 and 87% for DF1 and DF3, respectively.
GST-YTHDC1, GST-YTHDF1, GST-YTHDF2, and GST-YTHDF3 were purified as previously reported. The HTRF assay was assembled as detailed in ref with the only difference being that the starting concentration of the dose–response experiments used for the IC50 determination was variated dependently from the tested compound. The same protocol was applied to the four proteins. The competitive inhibition data of GST-YTHDF1 (single dose experiment at 100 μM compound concentration and dose–response curves), GST-YTHDF3 (single dose experiment at 100 μM compound concentration and dose–response curves), and GST-YTHDF2 (single dose experiment at 100 μM compound concentration) were normalized as described in ref to mitigate interference. The signal was measured as described in ref .

[2] = molecular target: T2, YTHDC2 (Homo sapiens, UniProt Q9H6S0); test: DNA-fluorescence polarization (FP) competition assay, DC2; type: binding; details: for Kd: Cheng-Prusoff from FP IC50, probe Kd 7 nM, two biological replicates; for Selectivity DF2 over DC2 (Kd ratio DC2/DF2): FP Kd values
T2 construct: YTH domain of YTHDC2 (residues 1285–1424, cloned into the pGEX-6P-1 vector); made in house; host or cells: Rosetta (DE3) cells (E. coli)
T2 sequence (Q9H6S0 1285-1424): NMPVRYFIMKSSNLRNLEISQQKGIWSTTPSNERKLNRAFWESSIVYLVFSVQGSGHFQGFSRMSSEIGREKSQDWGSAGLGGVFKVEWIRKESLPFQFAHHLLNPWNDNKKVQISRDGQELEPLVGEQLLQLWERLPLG
Method: (§1) The binding affinity for DC1 could not be evaluated by HTRF because of interference of the compounds with the assay, which has a smaller assay window when performed with DC1 compared to the DF proteins. Thus, the FP assay was used to evaluate binding to DC1 and DC2.
The N-terminally GST-tagged YTH domain of YTHDC2 (residues 1285–1424, cloned into the pGEX-6P-1 vector) was overexpressed in Rosetta (DE3) cells grown overnight at 20 °C following induction with 0.4 mM isopropyl-β-D-thiogalactopyranoside (IPTG) at an OD600 of 0.8. The cells were harvested and resuspended in a lysis buffer containing 100 mM Tris–HCl (pH 8.0) and 500 mM NaCl. After cell lysis, the lysate was clarified by centrifugation at 48,000g for 1 h, and the soluble proteins were loaded onto a column packed with Glutathione Sepharose 4B (GE Healthcare), then eluted with 20 mM reduced glutathione in lysis buffer. Finally, a size-exclusion chromatography step (HiLoad 16/600 Superdex 200 pg column, GE Healthcare) was performed to further purify the protein in 20 mM Tris–HCl (pH 7.4) and 150 mM NaCl.
(§2) For fluorescence polarization (FP) experiments, a 5′-fluorescein-labeled m^6A-DNA probe (5′-FAM-[…](m6A)-CTAAGCT-3′) was synthesized by Microsynth AG.
(§3) The final concentration of the fluorescein-labeled DNA was kept constant at 3 nM. For YTHDC2 measurements, the protein concentration was set to 25 nM, while for YTHDF2 measurements, it was set to 10 nM, and for YTHDC1, it was set at 15 nM. The compound concentration was serially diluted to obtain the dose–response curve. The competition experiments were conducted in a final volume of 20 μL in a buffer containing 20 mM Tris–HCl (pH 7.4), 150 mM NaCl, and 0.01% bovine serum albumin (BSA), using a 384-well black flat-bottomed microplate (Corning 3575).
(§4) After incubating the mixture for 1 h, the anisotropy values were measured using a Tecan SPARK plate reader with 485/20 nm excitation and 535/25 nm emission polarization filters, suitable for fluorescein, at 25 °C. To obtain the equilibrium dissociation constant (K d), the IC50 values were first derived by fitting a dose–response curve to the data using nonlinear regression analysis in GraphPad Prism. These IC50 values were then converted to K d by using the Cheng–Prusoff equation: Kd=IC50/1+[L]/Kdprobe
(§5) IC50 is the observed value from FP assay, [L] is the probe concentration used, and K d ^probe is the binding affinity of probe for the target.

[3] = molecular target: YTHDC1 (Homo sapiens, UniProt Q96MU7); test: DNA-fluorescence polarization (FP) competition assay, DC1; type: binding; details: for Selectivity DF2 over DC1 (Kd ratio DC1/DF2): FP Kd values
Method: as §1, §2, §3, §4, §5

Structure (SMILES) | Single-dose residual signal at 100 µM, DF1 ([1]; HTRF) | Kd [2] | Selectivity DF2 over DC2 (Kd ratio DC2/DF2) [2] | Kd [3] | Selectivity DF2 over DC1 (Kd ratio DC1/DF2) [3] | IC50 [1] | Residual signal DF1 at highest concentration ([1]; HTRF, 62.5 μM compound)
O=c1[nH]c(=S)[nH]c2sccc12 [Compound 14] | 15% | 88 µM | ~20 fold | 32 µM | ~8 fold |  | 
COC(=O)c1ccc(-c2csc3[nH]c(=S)[nH]c(=O)c23)cc1 [Compound 17] | 7% | 6.3 µM |  | 5 µM |  | 10 µM | 
O=C(O)c1ccc(-c2csc3[nH]c(=S)[nH]c(=O)c23)cc1 [Compound 18] | 3% | 7.7 µM |  | 6.9 µM |  | 11 µM | 
O=c1[nH]c(=S)[nH]c2scc(-c3ccc(O)cc3)c12 [Compound 19] | 8% | 40 µM |  | 27 µM |  |  | 
CC(=O)c1sc2[nH]c(=S)[nH]c(=O)c2c1C [Compound 20] | 8% | 46 µM |  | 47 µM |  |  | 
CCOC(=O)c1sc2[nH]c(=S)[nH]c(=O)c2c1C [Compound 21] | 12% | 230 µM |  | 36 µM |  |  | 
Cc1c(C(=O)NCc2ccccc2)sc2[nH]c(=S)[nH]c(=O)c12 [Compound 22] | 17% | 270 µM |  | 92 µM |  |  | 
Cc1c(C(=O)NCc2cccnc2)sc2[nH]c(=S)[nH]c(=O)c12 [Compound 23] | 20% | > 400 µM and 450 µM | about 350 fold | 120 µM | ~100 fold | > 60 µM | 51%
Cc1c(C(=O)NCc2cccc(C(=O)O)c2)sc2[nH]c(=S)[nH]c(=O)c12 [Compound 24] | 5% | 41 µM |  | 24 µM |  |  | 
Cc1c(C(=O)NCCCC(=O)O)sc2[nH]c(=S)[nH]c(=O)c12 [Compound 25] | 6% | 130 µM |  | 32 µM |  |  | 
Cc1c(-c2ccc([N+](=O)[O-])cc2)sc2[nH]c(=S)[nH]c(=O)c12 [Compound 26] | 12% | 35 µM |  | 61 µM |  |  | 
Cc1c(-c2ccc(N)cc2)sc2[nH]c(=S)[nH]c(=O)c12 [Compound 27] | 6% | 30 µM |  | 14 µM |  | 13 µM | 
NC(=O)c1csc2[nH]c(=S)[nH]c(=O)c12 [Compound 31] | 27% | 18 µM |  | 40 µM |  |  | 

Now from value to compound:

Single-dose residual signal at 100 µM, DF1 ([1]; HTRF) | Kd [2] | Selectivity DF2 over DC2 (Kd ratio DC2/DF2) [2] | Kd [3] | Selectivity DF2 over DC1 (Kd ratio DC1/DF2) [3] | IC50 [1] | Residual signal DF1 at highest concentration ([1]; HTRF, 62.5 μM compound) | Structure (SMILES)
9% | 37 µM |  |  |  |  |  | O=c1[nH]c(=S)[nH]c2scc(-c3ccc(Br)cc3)c12 [Compound S75]
12% | 54 µM |  |  |  |  |  | COc1ccc(-c2csc3[nH]c(=S)[nH]c(=O)c23)cc1 [Compound S76]
32% | 240 µM |  |  |  |  |  | O=c1[nH]c(=S)[nH]c2scc(C3CCCCC3)c12 [Compound S77]
34% | 160 µM |  |  |  |  |  | O=c1[nH]c(=S)[nH]c2sc(Cc3ccccc3)cc12 [Compound S85]
16% | 450 µM and > 400 µM |  |  |  |  |  | CCOC(=O)c1csc2[nH]c(=S)[nH]c(=O)c12 [Compound S89]
36% | 240 µM |  |  |  |  |  | O=C(O)c1csc2[nH]c(=S)[nH]c(=O)c12 [Compound S90]
